Assay results taken from PMC9410420, “Novel Labdane Diterpenes-Based Synthetic Derivatives: Identification of a Bifunctional Vasodilator That Inhibits CaV1.2 and Stimulates KCa1.1 Channels” (Marine Drugs, 2022).

Legend:
rat aorta rings [1] = assay: KCl-induced contraction of rat aorta rings (electromechanical coupling)
Description: (§1) The abdominal aorta was gently cleaned of adipose and connective tissues and cut into 3-mm wide rings. These were mounted in organ baths between two parallel, L-shaped, stainless-steel hooks, with one fixed in place and the other connected to an isometric transducer. Rings were allowed to equilibrate for 60 min in modified Krebs-Henseleit solution (composition in mM: 118 NaCl, 4.75 KCl, 1.19 KH2PO4, 1.19 MgSO4, 25 NaHCO3, 11.5 glucose, 2.5 CaCl2, gassed with a 95% O2–5% CO2 gas mixture to create a pH of 7.4) under a passive tension of 1 g. During this equilibration period, the solution was changed every 15 min. Isometric tension was recorded using a digital PowerLab data acquisition system (PowerLab 8/30; ADInstruments). Ring viability was assessed by recording the response to 0.3 µM phenylephrine and 60 mM KCl. Where needed, the endothelium was removed by gently rubbing the lumen of the ring with a forceps tip. This procedure was validated by adding 10 µM acetylcholine at the plateau of phenylephrine-induced contraction; a relaxation greater than 70% or less than 10% denoted the presence or absence of functional endothelium, respectively.
(§2) Aorta rings were pre-contracted pharmaco-mechanically using 0.3 µM phenylephrine and electromechanically using 25–30 mM or 60 mM KCl. Once the contraction reached a plateau, the compound was added cumulatively into the organ bath. […] The response was calculated as the percentage of phenylephrine- or KCl-induced contraction (taken as 100%).

rat aorta rings [2] = assay: Phenylephrine-induced contraction of rat aorta rings (pharmaco-mechanical coupling); conditions: for Emax: Rattus norvegicus; for Emax / IC50: 0.3 µM phenylephrine
Description: as §1, §2

CaV1.2 channel [3] = target: T1, CaV1.2 channel (Rattus norvegicus, UniProt P22002); assay: Whole-cell patch-clamp, Ba2+ current through CaV1.2 channels (IBa1.2) in rat tail artery myocytes; format: cell-based; conditions: for Emax: read-out: Emax (percent maximal inhibition), IBa1.2; for IC50: read-out: IC50, IBa1.2 inhibition
T1 construct: smooth muscle cells were freshly isolated; endogenous in cells; host or cells: freshly isolated rat tail main artery smooth muscle cells
T1 sequence (P22002 whole entry): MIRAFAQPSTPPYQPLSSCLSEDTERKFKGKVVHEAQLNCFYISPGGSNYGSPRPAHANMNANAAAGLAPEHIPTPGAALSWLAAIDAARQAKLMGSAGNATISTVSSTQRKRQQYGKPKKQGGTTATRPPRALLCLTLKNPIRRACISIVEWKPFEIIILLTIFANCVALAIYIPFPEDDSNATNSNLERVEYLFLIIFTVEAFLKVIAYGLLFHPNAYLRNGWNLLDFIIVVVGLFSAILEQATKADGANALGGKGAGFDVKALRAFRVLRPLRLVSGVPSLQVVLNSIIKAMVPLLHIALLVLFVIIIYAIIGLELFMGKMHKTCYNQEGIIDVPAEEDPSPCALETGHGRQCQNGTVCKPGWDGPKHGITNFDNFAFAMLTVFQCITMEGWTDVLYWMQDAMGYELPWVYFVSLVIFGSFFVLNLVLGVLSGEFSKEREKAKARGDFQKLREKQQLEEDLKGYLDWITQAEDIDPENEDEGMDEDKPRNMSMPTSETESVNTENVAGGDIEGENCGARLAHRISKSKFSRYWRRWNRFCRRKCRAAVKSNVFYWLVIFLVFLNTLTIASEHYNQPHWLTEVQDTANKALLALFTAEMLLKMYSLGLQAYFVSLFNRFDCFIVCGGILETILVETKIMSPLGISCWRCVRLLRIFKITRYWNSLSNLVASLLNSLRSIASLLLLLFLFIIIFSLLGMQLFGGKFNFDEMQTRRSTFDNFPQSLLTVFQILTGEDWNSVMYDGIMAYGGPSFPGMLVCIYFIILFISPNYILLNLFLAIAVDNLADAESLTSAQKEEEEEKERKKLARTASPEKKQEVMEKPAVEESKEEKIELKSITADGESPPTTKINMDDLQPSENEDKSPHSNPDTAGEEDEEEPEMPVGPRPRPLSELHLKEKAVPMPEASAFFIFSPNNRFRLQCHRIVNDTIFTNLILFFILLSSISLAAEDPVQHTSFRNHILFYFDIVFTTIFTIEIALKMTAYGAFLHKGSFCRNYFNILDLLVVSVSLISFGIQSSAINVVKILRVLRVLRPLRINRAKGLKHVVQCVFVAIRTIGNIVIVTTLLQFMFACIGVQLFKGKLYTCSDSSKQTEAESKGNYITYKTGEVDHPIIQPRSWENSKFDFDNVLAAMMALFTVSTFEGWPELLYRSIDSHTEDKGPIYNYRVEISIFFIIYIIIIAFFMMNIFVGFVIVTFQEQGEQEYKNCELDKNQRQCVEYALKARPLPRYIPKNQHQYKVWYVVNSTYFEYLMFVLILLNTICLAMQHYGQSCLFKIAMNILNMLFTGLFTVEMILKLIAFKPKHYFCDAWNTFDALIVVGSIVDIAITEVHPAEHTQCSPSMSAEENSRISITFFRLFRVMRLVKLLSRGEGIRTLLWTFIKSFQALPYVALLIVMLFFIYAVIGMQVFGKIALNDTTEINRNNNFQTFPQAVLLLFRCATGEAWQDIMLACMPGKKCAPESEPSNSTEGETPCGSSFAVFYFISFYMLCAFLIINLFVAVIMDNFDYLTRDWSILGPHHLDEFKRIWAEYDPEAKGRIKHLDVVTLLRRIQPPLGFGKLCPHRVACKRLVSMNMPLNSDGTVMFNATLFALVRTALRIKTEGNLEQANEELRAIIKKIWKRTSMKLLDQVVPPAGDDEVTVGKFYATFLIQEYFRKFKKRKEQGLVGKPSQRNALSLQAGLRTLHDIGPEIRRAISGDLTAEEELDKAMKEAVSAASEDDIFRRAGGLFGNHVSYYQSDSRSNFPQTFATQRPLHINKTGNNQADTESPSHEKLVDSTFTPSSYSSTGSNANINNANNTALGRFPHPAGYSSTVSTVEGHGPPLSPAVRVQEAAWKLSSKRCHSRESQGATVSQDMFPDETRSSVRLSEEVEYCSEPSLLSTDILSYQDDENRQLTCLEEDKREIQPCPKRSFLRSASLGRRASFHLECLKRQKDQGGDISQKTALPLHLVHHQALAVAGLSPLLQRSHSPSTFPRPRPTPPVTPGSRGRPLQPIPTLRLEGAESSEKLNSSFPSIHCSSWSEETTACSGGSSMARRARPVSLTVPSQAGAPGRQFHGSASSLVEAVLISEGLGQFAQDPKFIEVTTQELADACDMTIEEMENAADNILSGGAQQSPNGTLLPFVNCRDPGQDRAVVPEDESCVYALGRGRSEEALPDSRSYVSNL
T1 sequence (P54290 25-944 partner limits assumed): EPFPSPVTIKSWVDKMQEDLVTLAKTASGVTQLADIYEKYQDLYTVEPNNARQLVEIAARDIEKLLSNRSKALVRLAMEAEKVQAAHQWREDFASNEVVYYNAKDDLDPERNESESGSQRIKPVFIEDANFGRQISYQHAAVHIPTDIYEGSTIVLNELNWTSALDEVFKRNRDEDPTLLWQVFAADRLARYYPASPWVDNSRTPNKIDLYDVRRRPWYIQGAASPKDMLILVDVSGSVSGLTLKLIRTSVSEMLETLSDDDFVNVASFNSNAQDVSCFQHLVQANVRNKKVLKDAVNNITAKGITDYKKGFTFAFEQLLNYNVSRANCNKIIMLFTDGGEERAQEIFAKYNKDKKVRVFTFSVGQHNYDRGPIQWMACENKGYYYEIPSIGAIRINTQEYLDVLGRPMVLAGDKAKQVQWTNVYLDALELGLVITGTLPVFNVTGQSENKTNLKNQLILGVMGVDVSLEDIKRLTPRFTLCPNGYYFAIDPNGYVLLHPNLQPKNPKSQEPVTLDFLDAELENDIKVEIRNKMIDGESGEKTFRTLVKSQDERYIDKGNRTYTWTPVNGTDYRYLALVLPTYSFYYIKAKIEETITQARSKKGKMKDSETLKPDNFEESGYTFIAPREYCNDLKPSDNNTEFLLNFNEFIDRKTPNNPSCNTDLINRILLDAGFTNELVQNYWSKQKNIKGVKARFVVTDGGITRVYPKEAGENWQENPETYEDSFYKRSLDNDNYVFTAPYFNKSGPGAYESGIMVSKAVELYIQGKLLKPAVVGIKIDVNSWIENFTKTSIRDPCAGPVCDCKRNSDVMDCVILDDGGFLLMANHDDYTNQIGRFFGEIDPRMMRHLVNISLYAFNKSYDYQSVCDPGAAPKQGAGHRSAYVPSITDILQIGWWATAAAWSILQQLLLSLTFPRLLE
T1 sequence (P54290 945-1091 partner limits assumed): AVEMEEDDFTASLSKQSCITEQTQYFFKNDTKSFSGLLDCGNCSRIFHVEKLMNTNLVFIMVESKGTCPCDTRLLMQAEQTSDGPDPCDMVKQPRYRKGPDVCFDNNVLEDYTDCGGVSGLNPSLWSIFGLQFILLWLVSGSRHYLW
T1 sequence (P54287 whole entry partner): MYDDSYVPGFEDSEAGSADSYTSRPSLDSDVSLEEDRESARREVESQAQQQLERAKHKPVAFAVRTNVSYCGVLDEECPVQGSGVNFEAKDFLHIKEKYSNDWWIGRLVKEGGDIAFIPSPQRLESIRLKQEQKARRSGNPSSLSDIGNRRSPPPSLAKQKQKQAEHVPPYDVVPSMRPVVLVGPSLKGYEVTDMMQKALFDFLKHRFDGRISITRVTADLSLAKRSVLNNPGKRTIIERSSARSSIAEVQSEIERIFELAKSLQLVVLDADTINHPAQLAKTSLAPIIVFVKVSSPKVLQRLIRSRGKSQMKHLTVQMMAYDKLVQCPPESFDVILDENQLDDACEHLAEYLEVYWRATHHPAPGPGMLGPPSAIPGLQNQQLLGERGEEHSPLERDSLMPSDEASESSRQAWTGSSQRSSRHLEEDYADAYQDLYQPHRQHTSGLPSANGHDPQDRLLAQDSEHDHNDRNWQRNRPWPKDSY
Description: The tail main artery was dissected free of its connective tissue, and smooth muscle cells were freshly isolated under the following conditions. […] Cells stored in 0.05 mM Ca^2+ external solution containing 20 mM taurine and 0.5 mg/mL BSA at 4 °C under normal air were used for experiments within two days after isolation.
An Axopatch 200B patch-clamp amplifier (Molecular Devices Corporation, Sunnyvale, CA, USA) was used to generate and apply voltage pulses to the clamped cells and record the corresponding membrane currents. Recording electrodes were pulled from borosilicate glass capillaries (WPI, Berlin, Germany) and fire-polished to obtain a pipette resistance of 2–4 MΩ, when filled with an internal solution. At the beginning of each experiment, the junction potential between the pipette and bath solution was electronically adjusted to zero. […] Electrophysiological responses were tested at room temperature (20–22 °C).
The conventional whole-cell patch-clamp method was employed to voltage-clamp smooth muscle cells. The internal solution consisted of (in mM) 100 CsCl, 10 HEPES, 11 EGTA, 2 MgCl2, 1 CaCl2 (pCa 8.4), 5 Na pyruvate, 5 succinic acid, 5 oxaloacetic acid, 3 Na2ATP, and 5 phosphocreatine; pH was adjusted to 7.4 with CsOH. IBa1.2 was recorded in an external solution containing 30 mM TEA and 5 mM Ba^2+. […] Data were collected once the current amplitude had been stabilized (usually 7–10 min after the whole-cell configuration had been obtained).

CaV1.2 channel [4] = target: T1, CaV1.2 channel; assay: Voltage dependence of CaV1.2 channel steady-state activation and inactivation in rat tail artery myocytes; format: cell-based; conditions: for Slope inact (slope factor of inactivation) / V50 inact (50% inactivation potential): Vh −80 mV
Excerpt: An Axopatch 200B patch-clamp amplifier (Molecular Devices Corporation, Sunnyvale, CA, USA) was used to generate and apply voltage pulses to the clamped cells and record the corresponding membrane currents. Recording electrodes were pulled from borosilicate glass capillaries (WPI, Berlin, Germany) and fire-polished to obtain a pipette resistance of 2–4 MΩ, when filled with an internal solution. At the beginning of each experiment, the junction potential between the pipette and bath solution was electronically adjusted to zero. After compensation for whole-cell capacitance and series resistance (between 70% and 75%), current signals were low-pass filtered at 1 kHz and digitized at 3 kHz, before being stored on a computer hard disk. Electrophysiological responses were tested at room temperature (20–22 °C).
Cells were continuously superfused with an external solution containing 0.1 mM Ca^2+ and 30 mM TEA using a peristaltic pump (LKB 2132, Bromma, Sweden) at a flow rate of 400 µL/min. The conventional whole-cell patch-clamp method was employed to voltage-clamp smooth muscle cells. The internal solution consisted of (in mM) 100 CsCl, 10 HEPES, 11 EGTA, 2 MgCl2, 1 CaCl2 (pCa 8.4), 5 Na pyruvate, 5 succinic acid, 5 oxaloacetic acid, 3 Na2ATP, and 5 phosphocreatine; pH was adjusted to 7.4 with CsOH. IBa1.2 was recorded in an external solution containing 30 mM TEA and 5 mM Ba^2+. The current was elicited with 250-ms clamp pulses (0.067 Hz) to 10 mV, from a Vh of −50 mV. Data were collected once the current amplitude had been stabilized (usually 7–10 min after the whole-cell configuration had been obtained).
Steady-state activation curves were derived from the current–voltage relationships. Conductance (G) was calculated from the equation G = IBa1.2/(Em − Erev), where: IBa1.2 is the peak current elicited by depolarizing test pulses between −50 mV and 40 mV from a Vh of −50 mV; Em is the membrane potential; and Erev is the reversal potential (estimated from the extrapolated current-voltage curves in Figure 2). Gmax is the maximal Ba^2+ conductance (calculated at potentials ≤40 mV). The G/Gmax ratio was plotted against the membrane potential and fitted to the Boltzmann equation [40]. Steady-state inactivation curves were obtained using a double-pulse protocol. Once various levels of the conditioning potential had been applied for 5 s, followed by a short (5-ms) return to the Vh of −80 mV, a test pulse (250 ms) to 10 mV was delivered to evoke the current. The delay between the conditioning potential and the test pulse allowed the full or near-complete deactivation of the channels, simultaneously avoiding partial recovery from inactivation. K^+ currents were blocked with 30 mM TEA in the external solution and Cs^+ in the internal solution. […] The osmolarity of the 30 mM TEA- and 5 mM Ba^2+-containing external solution (320 mosmol, adjusted with NaCl if required) and that of the internal solution (290 mosmol) were measured with an osmometer (Osmostat OM 6020, Menarini Diagnostics, Florence, Italy).

[5] = endothelium-denuded rat aorta rings pre-contracted by 25 mM KCl, read-out: Emax (percent maximal inhibition), KCl 25 mM-induced contraction
[6] = endothelium-denuded rat aorta rings pre-contracted by 25 mM KCl, read-out: IC50, KCl 25 mM-induced contraction
[7] = endothelium-denuded rat aorta rings pre-contracted by 60 mM KCl, read-out: Emax (percent maximal inhibition), KCl 60 mM-induced contraction
[8] = endothelium-denuded rat aorta rings pre-contracted by 60 mM KCl, read-out: IC50, KCl 60 mM-induced contraction
[9] = endothelium-denuded rat aorta rings, read-out: Emax (percent maximal inhibition), phenylephrine-induced contraction, −Endothelium
[10] = endothelium-intact rat aorta rings, read-out: Emax (percent maximal inhibition), phenylephrine-induced contraction, +Endothelium
[11] = endothelium-denuded rat aorta rings

CC1(C)CCC[C@]2(C)[C@@H](CC(=O)NCc3ccco3)[C@](C)(O)CC[C@@H]12 [Compound 8]
Emax (rat aorta rings [1]; [5]): 85.8 ± 4.8% | IC50 (rat aorta rings [1]; [6]): 2.1 ± 0.9 µM | Emax (rat aorta rings [1]; [7]): 87.3 ± 4.9% | IC50 (rat aorta rings [1]; [8]): 6.1 ± 1.6 µM | Emax (rat aorta rings [2]; [9]): ≤ 60% | Emax (rat aorta rings [2]; [10]): 15.2 ± 7.9% | IC50 (rat aorta rings [2]; [11]): ~44.7 µM | Emax (CaV1.2 channel [3]; pulses to 10 mV from Vh −50 mV): 92.4 ± 2.2% | IC50 (CaV1.2 channel [3]; pulses to 10 mV from Vh −50 mV): 16.7 ± 3 µM | Slope inact (slope factor of inactivation) (CaV1.2 channel [4]; 10 µM compound): −11.51 ± 1.90 | V50 inact (50% inactivation potential) (CaV1.2 channel [4]; 10 µM compound): −30.97 ± 3.49 mV | Slope act (slope factor of activation) (CaV1.2 channel [4]; 30 µM compound): 7.61 ± 0.66 | V50 act (50% activation potential) (CaV1.2 channel [4]; 30 µM compound): 0.03 ± 1.35 mV

CC1(C)CCC[C@]2(C)[C@@H](CCOCc3cccc(Cl)c3)[C@](C)(O)CC[C@@H]12 [Compound 10]
Emax (rat aorta rings [1]; [7]): 53.1 ± 13.4% | IC50 (rat aorta rings [1]; [8]): ~69.2 µM | Emax (CaV1.2 channel [3]; pulses to 10 mV from Vh −50 mV): 86.4 ± 4.9% | IC50 (CaV1.2 channel [3]; pulses to 10 mV from Vh −50 mV): 20.8 ± 6.1 µM

CC1(C)CCC[C@]2(C)[C@@H](CC(=O)NCCc3cccc(F)c3)[C@](C)(O)CC[C@@H]12 [Compound 9]
Emax (rat aorta rings [1]; [5]): 92.3 ± 0.6% | IC50 (rat aorta rings [1]; [6]): 0.9 ± 0.2 µM | Emax (rat aorta rings [1]; [7]): 92.4 ± 1.3% | IC50 (rat aorta rings [1]; [8]): 4.5 ± 0.5 µM | Emax (rat aorta rings [2]; [9]): ≤ 60% | Emax (rat aorta rings [2]; [10]): 19.4 ± 23.2% | IC50 (rat aorta rings [2]; [11]): ~55 µM | Emax (CaV1.2 channel [3]; pulses to 10 mV from Vh −50 mV): 97.8 ± 0.8% | IC50 (CaV1.2 channel [3]; pulses to 10 mV from Vh −50 mV): 15.3 ± 5.3 µM | Slope act (slope factor of activation) (CaV1.2 channel [4]; 10 µM compound): 6.79 ± 0.35 | V50 act (50% activation potential) (CaV1.2 channel [4]; 10 µM compound): −2.37 ± 0.95 mV | Slope inact (slope factor of inactivation) (CaV1.2 channel [4]; 10 µM compound): −10.25 ± 1.33 | V50 inact (50% inactivation potential) (CaV1.2 channel [4]; 10 µM compound): −36.46 ± 2.73 mV

sclareol [Compound 6]
Emax (percent maximal inhibition), KCl 60 mM-induced contraction (rat aorta rings [1]; endothelium-denuded rat aorta rings pre-contracted by 60 mM KCl): 98.8 ± 1.3 (5) % | IC50 (rat aorta rings [1]; [8]): 11.9 ± 1.3 µM | Emax (percent maximal inhibition), IBa1.2 (CaV1.2 channel [3]; pulses to 10 mV from Vh −50 mV): 88.7 ± 4.0 (5) % | IC50 (CaV1.2 channel [3]; pulses to 10 mV from Vh −50 mV): 33.2 ± 6.8 µM

COC(=O)C1=C(C)NC(C)=C([N+](=O)[O-])[C@H]1c1ccccc1C(F)(F)F [Bay K 8644, (S)-(-)-Bay K 8644, reference compound]
IBa1.2, % of the control (CaV1.2 channel [3]; 100 nM, n = 5): 447 ± 28%

CC1(C)CCCC2(C)C1CCC1(C)OC(=O)CC12 (single isomer, unassigned; (+)) [Compound 5, (+)-sclareolide, reference compound]
Emax (rat aorta rings [1]; [5]): 45.9 ± 8.5% | Emax (rat aorta rings [1]; [7]): 73.5 ± 6.8% | IC50 (rat aorta rings [1]; [8]): 29.2 ± 6.1 µM | Effect on phenylephrine-induced tone in words (rat aorta rings [2]; endothelium-intact rat aorta rings): dramatic concentration-dependent increase of phenylephrine-induced tone | Emax (CaV1.2 channel [3]; pulses to 10 mV from Vh −50 mV): 64.8 ± 6.1% | IC50 (CaV1.2 channel [3]; pulses to 10 mV from Vh −50 mV): ~69 µM
